How the values were obtained:
[1] = tested on: shoot apical meristem of cucurbit rootstock plant; experiment: Inhibition of the shoot apical meristem of cucurbit rootstock; format: in vivo; details: fatty alcohols about 2.3% (v/v); Oryzalin about 10 mM; sulfuric acid about 18N to about 9N; applied to shoot apical meristem
Excerpt: Rootstock plants, bottle gourd (Lagenaria siceraria var. ‘Emphasis’) or interspecific hybrid squash (C. maxima×C. moschata var. ‘Carnivor’), were sown in Fafard 3-b fertilizer-free mix and allowed to germinate. At the point when the cotyledons unfolded, (approx. 5-10 days after seeding) a droplet of a composition comprising fatty alcohols was applied to the shoot apical meristem of the seedling, between the cotyledons, so that the meristem was covered with solution. […] The droplet volume was 20 to 500 μL and was applied with a pipette (20-200 μL or 1000 μL volume capability, using plastic tips). Seedlings were watered prior to treatment, to avoid needing to water post-treatment, which can dilute or wash away the fatty alcohol solution and prevent burnout of the shoot apical meristem. The treated rootstock seedlings can then be grafted to the appropriate scion at about 1 to 21 days post-treatment. In this case, the rootstock seedling was grafted to a cucurbit scion at about 24 hours after the rootstock shoot apical meristem was first contacted with the fatty alcohol composition.
Maleic hydrazide (21.7%; Royal MH-30®; Chemtura Corp., Middlebury, Conn.) at a concentration of about 90 mg/ml was applied to the shoot apical meristem of rootstock plant. The treated rootstock plants were incubated for about 24 hours prior to grafting to a scion.

[2] = tested on: cucurbit rootstock seedling grafted to watermelon or melon scion
Description: Grafting can be performed at about 1-21 days after a rootstock shoot apical meristem is treated with a fatty alcohol solution. Possible grafting methods include the following: 1) hole-insertion, in which the rootstock meristem is removed, a hole is punched into the old meristematic area with a bamboo needle, and the scion (cut at the end to both sharpen and expose vascular cambium tissue) is inserted into the prepared rootstock; and 2) one cotyledon, where the rootstock's meristem area and one cotyledon are removed, and the cut scion hypocotyl is adjoined to the resulting wound, stabilized with a clip, and allowed to heal. Once grafted, the plants are placed for approximately seven days in a healing chamber under high humidity for about the first 1-3 days, and then gradually decreasing humidity for the remaining days. After about seven days of healing, the grafted plants can be removed from the chamber and planted.
In this case, the cucurbit rootstock seedling as described in Example 1 was grafted to a cucurbit scion, watermelon (Citrullus lanatus subsp. vulgaris cv. ‘Tri-X-313’) or melon (Cucumis melo cv. ‘Athena’) at about 24 hours after the rootstock shoot apical meristem was first contacted with the fatty alcohol composition. Seven days were allowed for the graft to heal. […]

O=S(=O)(O)O [sulfuric acid, Sulfuric acid]
effect on rootstock shoot apical meristem [1]: death of the shoot apical meristem | successful grafts out of 2016 attempted grafts ([2]; grafted about 24 hours after treatment, fatty alcohols about 2.3% (v/v), maleic hydrazide about 90 mg/ml, Oryzalin about 10 mM, sulfuric acid about 18N to about 9N): none were successful | effect on grafting tissues ([2]; sulfuric acid about 18N to about 9N applied to shoot apical meristem): the grafting tissues were also destroyed

Source: patent US8629330B2, “Methods and compositions for the inhibition of meristematic growth on cucurbit rootstock” (Syngenta Participations AG, priority 2012, dated 2014)
